Series [1] can be described thus: Aqueous solubility of compound at pH 6.5. In kind it is physicochemical. The note with it: aqueous solution.
A short description of series [2]: Stability in human liver microsomes assessed as parent compound remaining after 10 mins. In kind it is ADME, Microsome. The note with it: read-out: Stabilty.
The nature of series [3]: Stability in rat liver microsomes assessed as parent compound remaining after 10 mins. As to conditions: read-out: Stabilty. In kind it is ADME, Microsome.
Series [4] is described as follows: Stability in mouse liver microsomes assessed as parent compound remaining after 10 mins. In kind it is ADME, Microsome. The note with it: read-out: Stabilty. For orientation: Liver microsomes are a subcellular fraction often used to study metabolism.
The nature of series [5]: Cmax in mouse at 10 mg/kg, po. The format is ADME, organism-based. Also on record: route oral, dose 10 mg/kg. The note with it: in vivo.
Series [6] can be described thus: AUC (0 to 24 hrs) in mouse at 10 mg/kg, po. The format is ADME, organism-based. More on the design: time < 24 hr, route oral, dose 10 mg/kg. As to conditions: in vivo.
Series [7] can be described thus: Clearance in mouse at 10 mg/kg, po. The format is ADME, organism-based. The note with it: in vivo.
Series [8] is described as follows: Volume of distribution at steady state in mouse at 10 mg/kg, po. As to conditions: in vivo. In kind it is ADME, organism-based.
A short description of series [9]: Oral bioavailability in mouse at 10 mg/kg. In kind it is ADME, organism-based. As to conditions: in vivo.
The nature of series [10]: Cmax in rat at 10 mg/kg, po. More on the design: route oral, dose 10 mg/kg. In kind it is ADME, organism-based. The note with it: in vivo.
Series [11] is described as follows: AUC (0 to 24 hrs) in rat at 10 mg/kg, po. The format is ADME, organism-based. Also on record: time < 24 hr, route oral, dose 10 mg/kg. The note with it: in vivo.
Series [12] can be described thus: Clearance in rat at 10 mg/kg, po. The format is ADME, organism-based. The note with it: in vivo.
The nature of series [13]: Volume of distribution at steady state in rat at 10 mg/kg, po. The note with it: in vivo. The format is ADME, organism-based.
The nature of series [14]: Oral bioavailability in rat at 10 mg/kg. The format is ADME, organism-based. As to conditions: in vivo.
Series [15] is described as follows: Cmax in cynomolgus monkey at 7 mg/kg, po. The format is ADME, organism-based, Macaca fascicularis. More on the design: route oral, dose 7 mg/kg. As to conditions: in vivo.
Series [16] can be described thus: AUC (0 to 24 hrs) in cynomolgus monkey at 7 mg/kg, po. In kind it is ADME, organism-based, Macaca fascicularis. Also on record: time < 24 hr, route oral, dose 7 mg/kg. As to conditions: in vivo.
Series [17] is described as follows: Clearance in cynomolgus monkey at 7 mg/kg, po. The note with it: in vivo. The format is ADME, organism-based, Macaca fascicularis.
The nature of series [18]: Volume of distribution at steady state in cynomolgus monkey at 7 mg/kg, po. The format is ADME, organism-based, Macaca fascicularis. The note with it: in vivo.
The nature of series [19]: Oral bioavailability in cynomolgus monkey at 7 mg/kg. In kind it is ADME, organism-based, Macaca fascicularis. As to conditions: in vivo.
Series [20] in a line: Cmax in dog at 10 mg/kg, po. In kind it is ADME, organism-based, Canis lupus familiaris. Also on record: route oral, dose 10 mg/kg. As to conditions: in vivo.
A short description of series [21]: AUC (0 to 24 hrs) in dog at 10 mg/kg, po. The format is ADME, organism-based, Canis lupus familiaris. Also on record: time < 24 hr, route oral, dose 10 mg/kg. The note with it: in vivo.
Series [22] in a line: Clearance in dog at 10 mg/kg, po. In kind it is ADME, organism-based, Canis lupus familiaris. The note with it: in vivo.
The nature of series [23]: Volume of distribution at steady state in dog at 10 mg/kg, po. The format is ADME, organism-based, Canis lupus familiaris. As to conditions: in vivo.
Series [24] can be described thus: Oral bioavailability in dog at 10 mg/kg. The format is ADME, organism-based, Canis lupus familiaris. As to conditions: in vivo.
Series [25] in a line: Half life in mouse liver microsomes. In kind it is ADME, Microsome.
Series [26] can be described thus: Half life in rat liver microsomes. The format is ADME, Microsome.
A short description of series [27]: Half life in monkey liver microsomes. The format is ADME, Macaca mulatta, Microsome. The note with it: rhesus monkey.
Series [28] is described as follows: Half life in human liver microsomes. In kind it is ADME, Microsome.
Series [29] is described as follows: Half life in dog liver microsomes. In kind it is ADME, Canis lupus familiaris, Microsome.

Molecules are shown by their SMILES. ≈ marks a conversion by molar mass, not a printed value.

The solubility is how much of the substance goes into solution per volume. `[2H]C([2H])([2H])NC(=O)c1nnc(NC(=O)C2CC2)cc1Nc1cccc(-c2ncc(C(C)(C)O)cn2)c1OC`: the solubility in series [1] was 14 µg/mL (≈ 29.1 µM).
In general, Cmax refers to the maximum level reached in the sampled fluid or tissue. By AUC(0-t) is commonly meant the area under the concentration-time curve up to a stated or last time point. The term CL/F denotes the apparent clearance, not corrected for the fraction that reaches the circulation. Broadly, the bioavailability is the share of a dose that reaches the circulation, judged against a reference dose that is usually intravenous. For `[2H]C([2H])([2H])NC(=O)c1nnc(NC(=O)C2CC2)cc1Nc1cccc(-c2ncccn2)c1OC`, the remaining at 10 min turned out to be 100% in series [2], 77% in series [3] and 78% in series [4]. The solubility in [1] was less than 1 µg/mL. Moreover, in series [5], the concentration peaked (Cmax) at 5.4 µM. The molecule also yielded an AUC(0-t) at 24 h in series [6] of 15 µM·h. The molecule further came in with a CL/F in series [7] of 7.9 mL/min/kg. In addition, the Vdss in series [8] amounted to 2.3 L/kg. In series [9], this molecule yielded a bioavailability of 31%.
Take `[2H]C([2H])([2H])NC(=O)c1cnc(NC(=O)C2CC2)cc1Nc1cccc(-c2ncccn2)c1OC`: the concentration in solution in series [1] (solubility) came to 32 µg/mL (≈ 75.9 µM).
As for `[2H]C([2H])([2H])NC(=O)c1nnc(NC(=O)C2CC2)cc1Nc1cccc(-c2cccnn2)c1OC`, the remaining at 10 min worked out at 60% in series [2], 8% in series [3] and 0% in [4].
The corresponding values for `[2H]C([2H])([2H])NC(=O)c1nnc(NC(=O)C2CC2)cc1Nc1cccc(-c2cnccn2)c1OC` are 58%, 1% and 1%.
`[2H]C([2H])([2H])NC(=O)c1nnc(NC(=O)C2CC2)cc1Nc1cccc(-c2ncn(C)n2)c1OC` [DEUCRAVACITINIB]: the remaining at 10 min in [2] was 98%; in series [3] it was 100%; in [4] it was 89%.
`[2H]C([2H])([2H])NC(=O)c1nnc(NC(=O)C2CC2)cc1Nc1cccc(-c2cnc(C(=O)N(C)C)cn2)c1OC` yielded a Cmax in series [5] of 7.8 µM. The AUC(0-t) at 24 h in series [6] stood at 19 µM·h. The apparent clearance CL/F in series [7] was 7.6 mL/min/kg. This molecule had a Vdss in series [8] of 1.5 L/kg. In series [9], this molecule returned a bioavailability of 43%.
Consider `[2H]C([2H])([2H])NC(=O)c1nnc(NC(=O)C2CC2)cc1Nc1cccc(-c2cnc(C(C)(C)O)cn2)c1OC`, for which the remaining at 10 min in series [2] was 95%; in [3], 90%; in [4], 99%. The same molecule returned a Cmax in [5] of 6.1 µM. Moreover, the AUC(0-t) at 24 h in [6] is 26 µM·h. In addition, the apparent clearance (CL/F) in series [7] came out at 5.3 mL/min/kg. In series [8], this molecule registered a Vdss of 3.4 L/kg. Further, in [9], the bioavailability amounted to 41%.
Regarding `[2H]C([2H])([2H])NC(=O)c1nnc(NC(=O)C2CC2)cc1Nc1cccc(-c2ccccn2)c1OC`, the remaining at 10 min amounted to 79% in series [2], 34% in series [3] and 42% in series [4].
A word on the half-life: it is the time needed for the level to fall by half in the phase considered. As for `[2H]C([2H])([2H])NC(=O)c1cnc(NC(=O)C2CC2)cc1Nc1cccc(-c2ncc(F)cn2)c1OC` [BMS-986202], the Cmax was determined as 13 µM in series [5], 13 µM in series [10], 11 µM in series [15] and 14 µM in series [20]. In addition, the AUC(0-t) at 24 h was determined as 65 µM·h in series [6], 77 µM·h in series [11], 130 µM·h in series [16] and 126 µM·h in series [21]. Besides, the CL/F is 3 mL/min/kg in series [7], 3.6 mL/min/kg in series [12], 2.3 mL/min/kg in series [17] and 1.8 mL/min/kg in series [22]. For the same molecule, the Vdss is 1.1 L/kg in series [8], 1.1 L/kg in series [13], 7 L/kg in series [18] and 1.5 L/kg in series [23]. For the same molecule, the bioavailability was determined as 62% in series [9], 72% in series [14], 100% in series [19] and 100% in [24]. The half-life was more than 2 h in [25]; more than 2 h in series [26]; more than 2 h in series [27]; more than 2 h in [28]; 1.48 h in series [29].
On to `[2H]C([2H])([2H])NC(=O)c1nnc(NC(=O)C2CC2)cc1Nc1cccc(-c2ccncn2)c1OC`, for which the remaining at 10 min amounted to 48% in [2], 3% in series [3] and 3% in [4].

Source of the values: ChEMBL document CHEMBL4765480 (J Med Chem, 2021).
